{
  "source": "paper PMC8868285",
  "about": "“Pharmacological Inhibition of Epac1 Averts Ferroptosis Cell Death by Preserving Mitochondrial Integrity” (Antioxidants, 2022)",
  "key": {"HT-22 cells [1]": {"test_system": "HT-22 cells", "test": "Brightfield images of cell morphology", "format": "cell-based, mouse", "settings": "100 μM CE3F4 + erastin 1 μM"}, "HT-22 cells [2]": {"test_system": "HT-22 cells", "test": "xCELLigence real-time cell impedance measurement", "format": "cell-based, mouse", "settings": "≥30 µM CE3F4 (30 and 100 μM), erastin 1 μM", "experimental": "Cell viability and metabolic activity of cells was first assessed using a colorimetric 3-(4,5-dimethylthiazol-2-yl)-2,5-diphenyltetrazolium Bromide (MTT) (Sigma–Aldrich Chemie GmbH, Steinheim, Germany, #M5655) reduction assay. Cells in a 96-well plate format (8–10,000 cells/well) were incubated with the MTT solution (0.5 mg/mL) for a maximum of 1 h at 37 °C. Afterward, the MTT-containing solution was entirely removed, and the 96-well plate was incubated at −80 °C for at least 2 h. To allow formazan to uniformly disperse in the medium, dimethyl sulfoxide (DMSO) (Sigma–Aldrich Chemie GmbH, Steinheim, Germany, #D8418, Lot# SHBH9942) was administered to the cells for 1 h at 37 °C with continuous shaking. The absorbance values were determined by Synergy™H1 (Bad Friedrichshall, Germany) Hybrid MultiMode Reader at 570 nm with a 630 nm reference filter. The absorbance values of untreated healthy cells or cells treated with DMSO 1% (used as a solvent for various pharmacological applications) were regarded as 100% of cell viability. […] HT-22 cells were treated with the following conditions: control condition (solvent), drug of interest, erastin, and pre- or co-treatment with erastin and drug of interest. […] Continuous cell monitoring was performed by using an E-plate 96 and the cellular impedance or cell resistance was assessed every 15 min for 24 h."}, "HT-22 cells [3]": {"test_system": "HT-22 cells", "test": "Extracellular flux analysis (Seahorse), oxygen consumption rate", "format": "cell-based, mouse", "experimental": "Cellular Oxygen Consumption Rate (OCR) was measured by using an XFe96 extracellular flux analyzer (Seahorse Bioscience, Billerica, MA, USA) which also entailed the mitochondrial stress test as described previously. HT-22 cells (10,000 cells/well) were seeded onto the XFe96-well cell culture microplate and incubated at 37 °C, 5% CO2. 24 h before the assay, the growth medium was replaced with a fresh medium containing either DMSO 1%, erastin 1 µM, CE3F4 alone, ESI-05 alone or a co-treatment of erastin with either CE3F4 or ESI-05. Cells in 180 μL of assay non-buffered DMEM medium supplemented with 2 mM glutamine, 4.5 g/L glucose and 1 mM pyruvate, pH 7.35 were incubated for 1 h in a CO2 free incubator at 37 °C. Basal respiration was measured before injecting the inhibitors that included; oligomycin (4 μM; port A)—an ATP synthase inhibitor; 2,4-dinitrophenol (DNP) (Sigma–Aldrich Chemie GmbH, Steinheim, Germany, #34334) (50 μM; port B)—a mitochondrial oxidative phosphorylation uncoupler; and rotenone (Sigma–Aldrich Chemie GmbH, Steinheim, Germany, #R8875) together with antimycin A (Sigma–Aldrich Chemie GmbH, Steinheim, Germany, #A8674) 0.1 μM and 1 μM; port C)—complex I and complex III inhibitors. By using the BCA assay, OCR measurements were normalized to the protein amount in every well. Three independent experiments with six wells per condition were performed, and a one-way ANOVA test was used to determine statistical significance among different groups."}, "HT-22 cells [4]": {"test_system": "HT-22 cells", "test": "Lipid peroxidation, BODIPY FACS", "settings": "100 μM CE3F4 + erastin 1 μM", "description": "Flow cytometry analysis using the CytoFLEXS benchtop flow cytometer (Beckman Coulter Life Sciences, Indianapolis, IN, USA) was used to evaluate intracellular parameters that are associated with not only oxidative stress but also mitochondrial dysfunction, and cell death. HT-22 cells (40,000 cells/well) seeded in 24-well plates were treated with various conditions. Treatment groups included: control condition (DMSO 1%), erastin 1 µM or 1.5 µM, CE3F4 100 µM, and co-treatment of erastin and CE3F4. Three separate wells were analyzed for each condition and the same number of counts (10,000/well) were measured by flow cytometry. At least three independent experiments were performed, and the Kaluza Analysis 1.5 software was employed for quantification of data.\nThe staining dye BODIPY 2 μM (Invitrogen, Karlsruhe, Germany, # D3861, Lot # 1890330) was used to estimate lipid peroxidation. Erastin treatment was done for 4 h. HT-22 cells were then stained for 30 min at RT, followed by a one-time wash with PBS and finally analyzed. Fluorescence excitation and detection were done at 488 nm and 530 nm respectively."}, "[5]": {"settings": "CE3F4 + erastin 1 μM vs erastin alone"}},
  "data": [
    {"smiles": "CC1CCc2c(cc(Br)c(F)c2Br)N1C=O", "note": "(stereo not shown) [CE3F4]", "values": [
      {"measurement": "effect on erastin-induced alteration in cell morphology", "setting": "HT-22 cells [1]", "result": "prevented"},
      {"measurement": "protection against erastin-induced cell death (cell impedance)", "setting": "HT-22 cells [2]", "result": "markedly prevented erastin-induced cell death"},
      {"measurement": "maximal respiration", "setting": "HT-22 cells [3]; 100 μM CE3F4 alone", "result": "increased maximal respiration"},
      {"measurement": "ATP-linked OCR", "setting": "HT-22 cells [3]; [5]", "result": "did not reach statistical significance"},
      {"measurement": "basal OCR", "setting": "HT-22 cells [3]; [5]", "result": "did not reach statistical significance"},
      {"measurement": "maximal OCR", "setting": "HT-22 cells [3]; [5]", "result": "significantly increased"},
      {"measurement": "effect on erastin-induced lipid peroxidation", "setting": "HT-22 cells [4]", "result": "significantly attenuated"}
    ]}
  ]
}
